According to patent US20070135997A1, “Methods for analysis of biological dataset profiles” (priority 2003, published 2007):
“Also recorded” adds a separate entry of the source.

System: VCAM-1 expression in human umbilical vein endothelial cells (HUVEC)
Test: Cell-based ELISA of VCAM-1 expression in cytokine-stimulated, gene-transduced endothelial cells
Text: Cytokines, antibodies, and cell culture. Recombinant human IFN-γ, TNF-α, and IL-1βwere from R&D Systems, Murine IgG from Sigma, Mouse anti-human ICAM-1 (clone B4H10) from Beckman Coulter and mouse anti-human E-selectin (clone ENA1) from HyCult Biotechnology. Unconjugated mouse antibodies against human VCAM-1 (clone 51-10C9), CD31 (clone WM-59), HLA-DR (clone G46-6), MIG (clone B8-77), and MCP-1 (clone 5D3-F7) were from BD Biosciences. Mouse anti-human IL-8 (clone 6217.111) was from R&D Systems. PD098059 was from Calbiochem. EGM-2 medium and required supplements were from Clonetics. Human umbilical vein endothelial cells (HUVEC) were from Clonetics; cultured in microtiter plates in EGM-2 medium containing manufacturer's supplements plus 2% heat-inactivated fetal bovine serum. […] PD098059 (3.7 μM final concentration) was added 1 hr before stimulation and was present during the whole 24 hr stimulation period.
Cell-based ELISAs. Cell-based ELISAs were carried out as previously described. Briefly, microtiter plates containing treated and stimulated HUVEC were blocked, and then incubated with primary antibodies or isotype control antibodies (0.01-0.5 μg/ml) for 1 hr. After washing, plates were then incubated with a peroxidase-conjugated anti-mouse IgG secondary antibody (Promega) for 1 hr. Plates were washed and developed with TMB substrate (Clinical Science Products) and the optical density (OD) was read at 450 nm (subtracting the background absorbance at 650 nm) on a SpectraMAX 190 plate reader (Molecular Devices).
Retroviral gene transduction. Test genes were cloned into a vector derived from the MoMLV-based vector pFB (Stratagene) downstream of the MoMLV LTR. A truncated form of the human nerve growth factor receptor (NGFR) preceded by an internal ribosomal entry site was used as a marker gene. Retroviral vector plasmid DNA was transfected into AmphoPack-293 cells (Clontech) by a modified calcium phosphate method according to the manufacturer's protocol (MBS transfection kit, Stratagene). Cell supernatants were harvested 48 hours post-transfection, filtered to remove cell debris (0.45 μm), and transferred onto exponentially growing HUVEC. DEAE dextran (10 μg/ml) was added to facilitate transduction. After 5-8 hr, the viral supernatant was removed and cells were cultured for an additional 40 hours. Gene transfer efficiency was determined by flow cytometric analysis using an NGFR-specific monoclonal antibody and was typically ≧70%.

Row | Molecule | Effect on VCAM-1 expression when the RAS/MAPK pathway is activated (HUVEC over-expressing MYD88, RAS*, MEK1* or MEK2* or IL-1β-stimulated, PD098059 3.7 μM added 1 hr before 24 hr cytokine stimulation) | Effect on VCAM-1 expression in TNF-α-treated cells (HUVEC treated with TNF-α, PD098059 3.7 μM added 1 hr before 24 hr stimulation) | Effect of IL-1β on TNF-induced VCAM-1 expression (HUVEC stimulated with 10 ng/ml TNF + 1 ng/ml IL-1) | Effect of IL-1β on TNF-induced VCAM-1 expression (HUVEC stimulated with 10 ng/ml TNF + 1 ng/ml IL-1, listed as IL-1)
1 | COc1cccc(-c2cc(=O)c3ccccc3o2)c1N [PD098059] | reversed the effect of MYD88 or RAS* over-expression; also recorded: increases VCAM-1 expression | no effect |  | 
2 | IL-1β: Recombinant human IL-1β from R&D Systems, pro-inflammatory cytokine |  |  | reduce the level of VCAM-1 expression | modulates the VCAM-1 expression induced by TNF
